Test results published in patent US8247397B2, “Combinations of phosphoinositide 3-kinase inhibitor compounds and chemotherapeutic agents, and methods of use” (Genentech, Inc., priority 2007, dated 2012).

Tests used:
[1] = test system: pAkt (Ser473) in MDA-MB-361 cells; test: Phospho AKT induction assay; type: cell-based; details: synergistic cell line MDA-MB-361, EC80 dosing, 1 hr to 24 hr
Protocol: Phospho Akt (pAkt) levels can be measured by the method described in Example 18. Low CI correlates with the effect of the chemotherapeutic to induce an increase in pAkt. Levels of pAkt (Ser473) were determined using bead kits from Biosource (Carlsbad, Calif.) and the Luminex Bio-Plex system (Bio-Rad, Hercules, Calif.).
In a 6-well tissue culture plate cells were seeded at 5×10^5 cells per well overnight. Cells were treated with an EC80 of the chemotherapeutic agent. Following treatment, cells were washed once with cold PBS and lysed in 1× Cell Extraction Buffer from Biosource (Carlsbad, Calif.) supplemented with protease inhibitors (Roche, Mannheim, Germany), 1 mM PMSF, and Phosphatase Inhibitor Cocktails 1 and 2 from Sigma (St. Louis, Mo.). Determination of protein concentration was performed using the Pierce BCA Protein Assay Kit (Rockford, Ill.). Levels of pAkt (Ser^473) and total Akt were assessed using bead kits from Biosource (Carlsbad, Calif.) and the Luminex Bio-Plex system (Bio-Rad, Hercules, Calif.).

[2] = test system: MCF-7 (PI3K mutant) breast tumor cell xenografts; test: In vivo tumor xenograft; design: species or system mouse; details: after 21 days; for tumor inhibition: mB20-4.1 5 mg/kg ip twice a week 3 weeks
Protocol: (§1) The efficacy of the combinations of the invention may be measured in vivo by implanting allografts or xenografts of cancer cells in rodents and treating the tumor-bearing animals with the combinations. Variable results are to be expected depending on the cell line, the presence or absence of certain mutations in the tumor cells, the sequence of administration of Formula I or II compound and chemotherapeutic agent, dosing regimen, and other factors. Subject mice were treated with drug(s) or control (Vehicle) and monitored over several weeks or more to measure the time to tumor doubling, log cell kill, and tumor inhibition (Example 17).
(§2) Animals suitable for transgenic experiments can be obtained from standard commercial sources. Groups of female CD-1 nude mice (Charles River Laboratory) were implanted subcutaneously in the hind flank with 20 million MDA-MB-361.1 (PI3K mutant) breast cancer cells with matrigel and 0.36 mg of estrogen implants per mouse. Groups of female NMRI nu/nu mice (Janvier) were implanted with 150 mm3 fragments of MAXF 401 (Her2+/ER+/PR^+) or MAXF 1162 (Her2+/ER+/PR^+) primary breast tumors (biopsied directly from two individual breast cancer patients) with matrigel and 0.36 mg of estrogen pellets per mouse. Groups of female HRLN nu/nu (Harlan Labs) were implanted with 10 million MCF-7 (PI3K mutant) breast cancer cells with matrigel and 0.36 mg of estrogen pellets per mouse. Groups of female athymic nu/nu mice (Charles River Laboratory) were implanted with 15 million NCI-H2122 (K-Ras mutant) non-small cell lung cancer cells and matrigel per mouse. Mouse xenografts were dosed at day 1 with drug, drug combination, or vehicle according to the schedule specified for each tumor model. Docetaxel was administered intravenously, B20-1.4 was administered intraperitonealy and Formula Ia and IIa were delivered per os by oral gavage. Tumor sizes were recorded twice weekly over the course of the study. Mouse body weights were also recorded twice weekly, and the mice were observed regularly. Tumor volume was measured in two dimensions (length and width) using Ultra Cal-IV calipers (Model 54-10-111; Fred V. Fowler Co., Inc.; Newton, Mass.) and analyzed using Excel v.11.2 (Microsoft Corporation; Redmond, Wash.). Tumor inhibition graphs were plotted using KaleidaGraph, Version 3.6 (Synergy Software; Reading, Pa.). The tumor volume was calculated with formula: Tumor size (mm^3)=(longer measurement×shorter measurement^2)×0.5
(§3) The percent tumor growth inhibition (% INH) at the end of study (EOS) was calculated using formula: % INH=100×(EOS mean volume of tumors in animals given vehicle−EOS mean volume of tumors in animals given the drug)/EOS mean volume of tumors in animals given vehicle.
(§4) Tumor incidence (TI) was determined based on the number of measurable tumors remaining in each group at the end of the study. A partial response (PR) was defined as a>50% but <100% reduction in tumor volume, compared with the starting tumor volume, observed on any day of the study. A complete response (CR) was defined as a 100% reduction in tumor volume, compared with the initial tumor volume, observed on any day of the study. Data were analyzed and p-values were determined using the Dunnett's test with JMP statistical software, version 5.1.2 (SAS Institute; Cary, N.C.). Individual tumor volumes at end of study and mean tumor volume±SEM values were calculated using JMP statistical software, version 5.1.2. Body weight data were graphed based on the mean percentage of change from initial body weights±SEM.

[3] = test system: MAXF 401 primary breast tumor explant xenografts; test: In vivo tumor xenograft; design: species or system mouse
Protocol: as §1, §2, §3, §4

[4] = test system: MAXF 1162 primary breast tumor explant xenografts; test: In vivo tumor xenograft; design: species or system mouse; details: after 49 days, docetaxel 15 mg/kg iv day 0, 11, 22, 44
Protocol: as §1, §2, §3, §4

[5] = test system: NCI-H2122 non-small cell lung cancer (NSCLC) tumor xenografts; test: In vivo tumor xenograft; design: species or system mouse; details: erlotinib 75 mg/kg
Protocol: as §1, §2, §3, §4

[6] = test system: MDA-MB-361.1 breast tumor cell xenografts; test: In vivo tumor xenograft; design: species or system mouse; details: for tumor inhibition: docetaxel 5 mg/kg iv day 1, 5, 9
Protocol: as §1, §2, §3, §4

Oral bioavailability = details: in vivo
[7] = test system: K-ras-driven NSCLC tumors; test: K-ras-driven NSCLC GEMM; type: in vivo, mouse
Excerpt: (§5) […]. Cancer Res. 12(18):5312-5328; US 2007/0292948, both of which are incorporated by reference in their entirety). The surprising and unexpected results from these experiments may predict the clinical response of certain patient populations having select tumor types and mutations to such combination therapy with Formula I and II compounds and chemotherapeutic agents.

[8] = test system: pancreatic adenocarcinoma (PDAC) tumors; test: Genetically engineered mouse model (GEMM) for pancreatic cancer; type: in vivo
Excerpt: as §5
A GEMM for pancreatic cancer (Aguirre et al. (2003) Genes & Development 17:3112-3126) encompasses the mutations found in a majority of patients with this disease.

[9] = test system: small cell lung cancer (SCLC) tumors; test: Genetically engineered mouse model (GEMM) for SCLC; type: in vivo
Excerpt: as §5

pERK = details: cited from earlier work
PKC = details: concentrations as high as 50 μM; cited from earlier work
SGK = target: T1, SGK (Homo sapiens, UniProt O00141); details: concentrations as high as 50 μM; cited from earlier work
T1 sequence (O00141 1-431): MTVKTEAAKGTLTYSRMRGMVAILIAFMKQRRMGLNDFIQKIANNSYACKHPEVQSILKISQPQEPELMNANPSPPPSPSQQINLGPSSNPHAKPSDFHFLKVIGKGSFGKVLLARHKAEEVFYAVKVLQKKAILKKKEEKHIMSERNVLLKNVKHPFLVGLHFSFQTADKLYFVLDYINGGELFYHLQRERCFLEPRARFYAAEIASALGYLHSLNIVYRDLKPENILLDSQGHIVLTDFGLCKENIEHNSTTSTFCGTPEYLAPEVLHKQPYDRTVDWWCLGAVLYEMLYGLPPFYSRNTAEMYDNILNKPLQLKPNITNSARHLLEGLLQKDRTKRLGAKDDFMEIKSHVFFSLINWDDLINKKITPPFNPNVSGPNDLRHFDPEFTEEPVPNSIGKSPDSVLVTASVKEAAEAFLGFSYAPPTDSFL

PKA = details: concentrations as high as 50 μM; cited from earlier work
[10] = FIG. 25, day 28, Formula IIa 100 mg/kg oral day 0-3, 11-17, 21-28, docetaxel 15 mg/kg iv day 0 and 11
[11] = FIG. 25, end of the study (day 50)
[12] = FIG. 27, Formula IIa 100 mg/kg oral
[13] = FIG. 23, after 21 days, Formula IIa 37.5 mg/kg oral daily 21 days
[14] = FIG. 23, after 21 days, groups of 10 animals
[15] = FIG. 24, day 28, NMRI nu/nu mice, Formula Ia 100 mg/kg oral day 0-4, 11-17, 21-28, docetaxel 15 mg/kg iv day 0 and 11
[16] = FIG. 24, end of the study (day 50)
[17] = FIG. 26, Formula Ia 100 mg/kg oral
[18] = FIG. 22, after 21 days, CD-1 nude mice, Formula Ia 150 mg/kg oral daily 21 days
[19] = FIG. 22, after 41 days, Formula Ia 150 mg/kg oral daily 21 days
[20] = FIG. 22, after 41 days, groups of 11 (Formula Ia), 10 (docetaxel), 9 (combination) animals

Molecule: Nc1ccn([C@@H]2O[C@H](CO)[C@@H](O)C2(F)F)c(=O)n1 [Gemcitabine, 4-amino-1-[3,3-difluoro-4-hydroxy-5-(hydroxymethyl)tetrahydrofuran-2-yl]-1H-pyrimidin-2-one]
- pAkt levels [1]: increased pAkt levels

Molecule: CS(=O)(=O)N1CCN(Cc2cc3c(N4CCOCC4)nc(-c4cccc5[nH]ncc45)nc3s2)CC1 [Formula IIa, 4-(2-(1H-indazol-4-yl)-6-((4-(methylsulfonyl)piperazin-1-yl)methyl)thieno[2,3-d]pyrimidin-4-yl)morpholine]
- partial regressions ([2]; FIG. 31): 0
- tumor inhibition ([2]; FIG. 31, Formula IIa 100 mg/kg oral daily 21 days): 5%
- tumor inhibition [3, 10]: 82%
- tumor inhibition [3, 11]: 51%
- tumor inhibition [4, 12]: 32%
- tumor inhibition ([5]; FIG. 29, end of study, Formula IIa 50 mg/kg, oral daily 14 days): 27%
- tumor inhibition [6, 13]: 30%
- partial regressions [6, 14]: 2
- oral bioavailability (Oral bioavailability): orally bioavailable

Molecule: CS(=O)(=O)N1CCN(Cc2cc3nc(-c4cccc5[nH]ncc45)nc(N4CCOCC4)c3s2)CC1 [Formula Ia, 4-(2-(1H-indazol-4-yl)-6-((4-(methylsulfonyl)piperazin-1-yl)methyl)thieno[3,2-d]pyrimidin-4-yl)morpholine]
- survival [7]: no effect on survival
- tumor growth as measured by microCT imaging [7]: minimally affected tumor growth
- partial regressions ([2]; FIG. 30): 0
- tumor inhibition ([2]; FIG. 30, HRLN nu/nu mice, Formula Ia 150 mg/kg oral daily 21 days): 36%
- tumor inhibition [3, 15]: 49%
- tumor inhibition [3, 16]: 10%
- tumor inhibition [4, 17]: 54%
- tumor inhibition ([5]; FIG. 28, after 20 days, Formula Ia 50 mg/kg, oral daily 16 days): 17%
- tumor inhibition [6, 18]: 75%
- tumor inhibition [6, 19]: 66%
- partial regressions [6, 20]: 3
- survival [8]: modest (not statistically significant) effect on survival
- tumor growth via ultrasound [8]: initial decrease in tumor growth
- oral bioavailability (Oral bioavailability): orally bioavailable
- survival [9]: did have an effect (significant hazard ratio) on survival
- tumor growth as assessed by microCT imaging [9]: did not show effects on tumor growth

Molecule: OCCn1cc(-c2ccc3c(c2)CC/C3=N\O)c(-c2ccncc2)n1 [HPPD, 5-(1-(2-hydroxyethyl)-3-(pyridin-4-yl)-1H-pyrazol-4-yl)-2,3-dihydro-1H-inden-1-one oxime]
- IC50 (pERK): 87 nM

Molecule: (2R,3S)-N-carboxy-3-phenylisoserine, N-tert-butyl ester, 13-ester with 5,20-epoxy-1,2,4,7,10,13-hexahydroxytax-11-en-9-one 4-acetate 2-benzoate, trihydrate [docetaxel, reference compound]
- tumor inhibition [3, 15]: 95%
- tumor inhibition [3, 16]: 68%
- tumor inhibition [3, 10]: 95%
- tumor inhibition [3, 11]: 68%
- tumor inhibition [4, 17]: 36%
- tumor inhibition [4, 12]: 36%
- tumor inhibition [6, 18]: 78%
- tumor inhibition [6, 19]: 26%
- partial regressions [6, 20]: 2
- tumor inhibition [6, 13]: 35%
- partial regressions [6, 14]: 3

Molecule: Cc1c(CN2CCN(C(=O)[C@H](C)O)CC2)sc2c(N3CCOCC3)nc(-c3cnc(N)nc3)nc12 [Formula Ib, (S)-1-(4-((2-(2-aminopyrimidin-5-yl)-7-methyl-4-morpholinothieno[3,2-d]pyrimidin-6-yl)methyl)piperazin-1-yl)-2-hydroxypropan-1-one]
- oral bioavailability (Oral bioavailability): orally bioavailable

Molecule: O=c1[nH]c2ccccc2n1C1CCN(Cc2ccc(-c3nc4cc5[nH]cnc5cc4nc3-c3ccccc3)cc2)CC1 [Akti-1/2, 1,3-dihydro-1-(1-((4-(6-phenyl-1H-imidazo[4,5-g]quinoxalin-7-yl)phenyl)methyl)-4-piperidinyl)-2H-benzimidazol-2-one]
- inhibitory effect (PKC): does not exhibit any inhibitory effect
- inhibitory effect (SGK): does not exhibit any inhibitory effect
- inhibitory effect (PKA): does not exhibit any inhibitory effect
